Source: US20240368149A1, “ANALOGS OF XANOMELINE” (Terran Biosciences Inc., priority 2023, published 2024)
Read-outs that look alike come from different tables or passages of the source.

What was measured:
[1] = Rat PK: plasma prodrug concentration after intravenous (IV) dosing of xanomeline prodrugs at 1 mg/kg (Example A-6); type: in vivo, male Sprague-Dawley (SD) rats; conditions: male, Sprague-Dawley, IV 1 mg/kg of xanomeline; for concentration at 0.25 h / concentration at 0.5 h / concentration at 0.75 h / Cmax / AUC(0-inf) / AUC(0-t): iv, 1 mg/kg; for concentration at 0.25 h: 0.250 h; for concentration at 0.25 h / concentration at 0.5 h / concentration at 0.75 h: read-out: Prodrug Plasma Concentrations Following Intravenous Dosing; for concentration at 0.5 h: 0.500 h; for concentration at 0.75 h: 0.750 h; for AUC(0-inf): read-out: Prodrug AUCINF_obs; for AUC(0-t): read-out: Prodrug AUClast
Method: (§1) • Step 1: A stock solution of the compound(s) were prepared to 1 mg/ml in DMSO • Step 2: A 10,000 ng/mL matched matrix standard was prepared using the stock solution(s) • Step 3: Calibration standards in matched matrix were prepared between 10,000 ng/ml and 0.5 ng/mL using serial dilution • Step 4: QC samples were prepared in matched matrix at 4000, 800, 400, 40 and 10 ng/mL
(§2) • Step 1: Add 10 μL of the standards, QCs and samples to a 96-well plate (extraction plate) • Step 2: To each standard, QC and test sample, add 100 μL of ISZ • Step 3: Sonicate for 2 min then mix the plate for approximately 2 min at 1200 rpm on a plate shaker • Step 4: Centrifuge the plate at 3000 rpm for 5 min • Step 5: Add 50 μL 0.1% formic acid in UP H2O to wells of a new 96-well plate • Step 6: Transfer 50 μL extracted sample to relevant position in second 96-well plate • Step 7: Mix at 1200 rpm for 2 min • Step 8: Heat seal and analyse on the LC-MS/MS system • Instrument: Xevo TQ-D with CTC Autosampler
(§3) Samples were sent for method optimization and measurement of prodrug via unique calibration lines and following acceptance QC's. Dose formulation concentrations were also measured, and PK parameters were determined (Cmax (ng/mL), Tmax (hr), Cl (ml/min/kg), Vdss (L/kg), t½ (hr), AUC0-t (ng/mL*hr), AUC0-inf (ng/mL*hr), MRT (hr), Bioavailability (% F) where warranted) using WinNon Lin software. Data (including bioanalytical results and assay performance) were reported in a tabulated format and QC'd.
Compound was dissolved in DMSO:HPCD (20% w/v in water) [10:90] 0.5 mg API/mL to provide doses of 1 mg/kg when administered IV in a 2 mL/kg dosing volume.
The pharmacokinetic properties of the synthesized xanomeline prodrugs after intravenous administration in a rat model were assessed. The concentration of prodrug was measured in each rat at various sampling timepoints after intravenous administration of the synthesized xanomeline prodrugs to rats.
Dose formulations were made at equivalent concentrations of active compound (xanomeline) adjusted for molecular weight of the compounds. The synthesized xanomeline prodrugs were dosed at 1 mg/kg intravenous (IV) nominal dose. Nominal doses were used in PK parameter determinations.

[2] = Rat PK: plasma prodrug concentration after intramuscular (IM) dosing of xanomeline prodrugs at 5 mg/kg (Example A-4); type: in vivo, male Sprague-Dawley (SD) rats; conditions: male, Sprague-Dawley, IM 5 mg/kg of xanomeline; for Cmax / AUC(0-inf) / AUC(0-t): im; for AUC(0-inf): read-out: Prodrug AUCINF_obs; for AUC(0-t): read-out: Prodrug AUClast; for concentration at 0.5 h: 0.500 h
Method: as §1, §2, §3
Formulation for IM administration: All compounds were formulated as solutions or fine suspensions in saline at 12.5 mg API/mL. This provided doses of 5 mg/kg (equivalent of xanomeline) when given to a 250 g rat in a 100 μL dosing volume.
The pharmacokinetic properties of the synthesized xanomeline prodrugs after intramuscular administration in a rat model were assessed. The concentration of prodrug was measured in each rat at various sampling timepoints after intramuscular administration of the synthesized xanomeline prodrugs to rats.
Dose formulations were made at equivalent concentrations of active compound (xanomeline) adjusted for molecular weight of the compounds. The synthesized xanomeline prodrugs were dosed at 5 mg/kg intramuscular (IM) nominal dose. Nominal doses were used in PK parameter determinations.

[3] = analyte prodrug, individual animals
[4] = 5 mg/kg, analyte prodrug, individual animals
[5] = intramuscular, 5 mg/kg, Mean, read-out: Prodrug Plasma Concentrations Following Intramuscular Dosing
[6] = intramuscular, 5 mg/kg, individual animals, read-out: Prodrug Plasma Concentrations Following Intramuscular Dosing

Structure (SMILES): CCCCCCOc1nsnc1C1=CCC[N+](C)(C(C)OC(=O)C(C)(C)C)C1 (stereo not drawn) [Compound 19]
- Tmax [1, 3]: 15 min
- concentration at 0.25 h ([1]; Mean): 27.2 ng/mL
- concentration at 0.25 h ([1]; individual animals): 35.4 ng/mL
- concentration at 0.5 h ([1]; Mean): 11.8 ng/mL
- concentration at 0.5 h ([1]; individual animals): 15.2 ng/mL
- concentration at 0.75 h ([1]; Mean): 7.1 ng/mL
- concentration at 0.75 h ([1]; individual animals): 8.62 ng/mL
- Cmax ([1]; analyte prodrug, Mean): 27.2 ng/mL
- AUC(0-inf) ([1]; analyte prodrug, Mean): 22.9 ng·h/mL
- AUC(0-t) ([1]; analyte prodrug, Mean): 17.8 ng·h/mL
- Cmax [1, 3]: 35.4 ng/mL
- AUC(0-inf) [1, 3]: 27.1 ng·h/mL
- AUC(0-t) [1, 3]: 24 ng·h/mL
- Tmax ([2]; analyte prodrug, Mean): 30 min
- Cmax ([2]; 5 mg/kg, analyte prodrug, Mean): 218 ng/mL
- AUC(0-inf) ([2]; 5 mg/kg, analyte prodrug, Mean): 697 ng·h/mL
- AUC(0-t) ([2]; 5 mg/kg, analyte prodrug, Mean): 618 ng·h/mL
- Cmax [2, 4]: 284 ng/mL
- AUC(0-inf) [2, 4]: 891 ng·h/mL
- AUC(0-t) [2, 4]: 667 ng·h/mL
- concentration at 0.5 h [2, 5]: 218 ng/mL
- concentration at 0.5 h [2, 6]: 284 ng/mL
- concentration at 1 h [2, 5]: 128 ng/mL
- concentration at 1 h [2, 6]: 115 ng/mL
- concentration at 2 h [2, 5]: 83 ng/mL
- concentration at 2 h [2, 6]: 80.2 ng/mL
- concentration at 4 h [2, 5]: 35.9 ng/mL
- concentration at 4 h [2, 6]: 38.6 ng/mL
- concentration at 8 h ([2]; intramuscular, 5 mg/kg, 8.00 h, Mean, read-out: Prodrug Plasma Concentrations Following Intramuscular Dosing): 13.7 ng/mL
- concentration at 24 h ([2]; intramuscular, 5 mg/kg, 24.0 h, Mean, read-out: Prodrug Plasma Concentrations Following Intramuscular Dosing): 1.59 ng/mL
- concentration at 31 h [2, 5]: 1.04 ng/mL
- concentration at 31 h [2, 6]: 1.01 ng/mL
- concentration at 48 h [2, 5]: 0.666 ng/mL
- concentration at 48 h [2, 6]: 0.775 ng/mL
- concentration at 96 h [2, 5]: 0.255 ng/mL
- concentration at 96 h [2, 6]: 0.764 ng/mL
